Article PMC6906348 (Therapeutic Advances in Medical Oncology, 2019)

System: patients with advanced HCC
Assay: Safety: adverse events
Assay type: in vivo, human
Conditions: for Abdominal pain (AE regardless of study drug relationship) / Acute kidney injury (AE regardless of study drug relationship) / Anemia (AE regardless of study drug relationship) / Ascites (AE regardless of study drug relationship) / Blood bilirubin increased (AE regardless of study drug relationship) / Blood creatinine increased (AE regardless of study drug relationship) / Constipation (AE regardless of study drug relationship) / Decreased appetite (AE regardless of study drug relationship) / Diarrhea (AE regardless of study drug relationship) / Fatigue (AE regardless of study drug relationship) / Hyperbilirubinemia (AE regardless of study drug relationship) / Hypoalbuminemia (AE regardless of study drug relationship) / Insomnia (AE regardless of study drug relationship) / Leukopenia (AE regardless of study drug relationship) / Nausea (AE regardless of study drug relationship) / Number of patients with at least one event (AE regardless of study drug relationship) / Peripheral edema (AE regardless of study drug relationship) / Platelet count decreased (AE regardless of study drug relationship) / Pyrexia (AE regardless of study drug relationship) / Vomiting (AE regardless of study drug relationship) / Weight decreased (AE regardless of study drug relationship) / ALT increased (AE regardless of study drug relationship) / AST increased (AE regardless of study drug relationship): patients n (%)
[1] = 600 mg capsule BID n = 27, All grades
[2] = 600 mg capsule BID n = 27, Grades 3/4
[3] = All patients n = 38, All grades
[4] = All patients n = 38, Grades 3/4
[5] = all patients (n = 38), all grades

With `CNC(=O)c1ccc(-c2cnc3ncc(Cc4ccc5ncccc5c4)n3n2)cc1F` [capmatinib] the “Abdominal pain (AE regardless of study drug relationship)” value (shortened to “Abdominal pain”) [1] was 3 (11), the “Acute kidney injury (AE regardless of study drug relationship)” value (from here on “Acute kidney injury”) [1] was 2 (7) and the “Anemia (AE regardless of study drug relationship)” value (from here on “Anemia”) [1] was 5 (19). For the same compound, the “Ascites (AE regardless of study drug relationship)” value (“Ascites” for short) [1] was 4 (15), the “Blood bilirubin increased (AE regardless of study drug relationship)” value (from here on “Blood bilirubin increased”) [1] was 7 (26) and the “Blood creatinine increased (AE regardless of study drug relationship)” value (“Blood creatinine increased” below) [1] was 7 (26). The “Constipation (AE regardless of study drug relationship)” value (“Constipation” below) [1] was 6 (22), the “Decreased appetite (AE regardless of study drug relationship)” value (from here on “Decreased appetite”) [1] was 9 (33) and the “Diarrhea (AE regardless of study drug relationship)” value [1] was 8 (30). For the same compound, the “Fatigue (AE regardless of study drug relationship)” value (“Fatigue” for short) [1] was 6 (22), the “Hyperbilirubinemia (AE regardless of study drug relationship)” value (from here on “Hyperbilirubinemia”) [1] was 4 (15) and the “Hypoalbuminemia (AE regardless of study drug relationship)” value (“Hypoalbuminemia” for short) [1] was 6 (22). The “Insomnia (AE regardless of study drug relationship)” value (from here on “Insomnia”) [1] was 5 (19), the “Leukopenia (AE regardless of study drug relationship)” value (shortened to “Leukopenia”) [1] was 4 (15) and the “Nausea (AE regardless of study drug relationship)” value [1] was 9 (33). The “Number of patients with at least one event (AE regardless of study drug relationship)” value (from here on “Number of patients”) [1] was 27 (100), the “Peripheral edema (AE regardless of study drug relationship)” value (“Peripheral edema” for short) [1] was 4 (15) and the “Platelet count decreased (AE regardless of study drug relationship)” value (shortened to “Platelet count decreased”) [1] was 4 (15). The “Pyrexia (AE regardless of study drug relationship)” value (“Pyrexia” below) [1] was 5 (19), the “Vomiting (AE regardless of study drug relationship)” value [1] was 9 (33) and the “Weight decreased (AE regardless of study drug relationship)” value (“Weight decreased” for short) [1] was 2 (7). For the same compound, the “ALT increased (AE regardless of study drug relationship)” value (shortened to “ALT increased”) [2] was 1 (4), the “AST increased (AE regardless of study drug relationship)” value (“AST increased” for short) [2] was 8 (30) and the “Abdominal pain” value [2] was 1 (4). For the same compound, the “Acute kidney injury” value [2] was 1 (4), the “Anemia” value [2] was 1 (4) and the “Ascites” value [2] was 1 (4). The “Blood bilirubin increased” value [2] was 5 (19), the “Blood creatinine increased” value [2] was 1 (4) and the “Constipation” value [2] was 0. For the same compound, the “Decreased appetite” value [2] was 1 (4), the “Diarrhea (AE regardless of study drug relationship)” value [2] was 0 and the “Fatigue” value [2] was 0. For the same compound, the “Hyperbilirubinemia” value [2] was 3 (11), the “Hypoalbuminemia” value [2] was 0 and the “Insomnia” value [2] was 0. For the same compound, the “Leukopenia” value [2] was 0, the “Nausea (AE regardless of study drug relationship)” value [2] was 1 (4) and the “Number of patients” value [2] was 19 (70). For the same compound, the “Peripheral edema” value [2] was 0, the “Platelet count decreased” value [2] was 0 and the “Pyrexia” value [2] was 0. For the same compound, the “Vomiting (AE regardless of study drug relationship)” value [2] was 1 (4), the “Weight decreased” value [2] was 0 and the “patients with at least 1 dose reduction due to AEs” value (7/38 patients) was 18%. The “ALT increased” value [3] was 7 (18), the “AST increased” value [3] was 12 (32) and the “Abdominal pain” value [3] was 5 (13). For the same compound, the “Acute kidney injury” value [3] was 4 (11), the “Anemia” value [3] was 8 (21) and the “Ascites” value [3] was 5 (13). The “Blood bilirubin increased” value [3] was 9 (24), the “Blood creatinine increased” value [3] was 10 (26) and the “Constipation” value [3] was 9 (24). For the same compound, the “Decreased appetite” value [3] was 12 (32), the “Diarrhea (AE regardless of study drug relationship)” value [3] was 13 (34) and the “Fatigue” value [3] was 10 (26). For the same compound, the “Hyperbilirubinemia” value [3] was 4 (11), the “Hypoalbuminemia” value [3] was 8 (21) and the “Insomnia” value [3] was 7 (18). For the same compound, the “Leukopenia” value [3] was 4 (11), the “Nausea (AE regardless of study drug relationship)” value [3] was 16 (42) and the “Number of patients” value [3] was 38 (100). The “Peripheral edema” value [3] was 6 (16), the “Platelet count decreased” value [3] was 4 (11) and the “Pyrexia” value [3] was 6 (16). For the same compound, the “Vomiting (AE regardless of study drug relationship)” value [3] was 14 (37), the “Weight decreased” value [3] was 4 (11) and the “ALT increased” value [4] was 2 (5). For the same compound, the “AST increased” value [4] was 9 (24), the “Abdominal pain” value [4] was 1 (3) and the “Acute kidney injury” value [4] was 2 (5). For the same compound, the “Anemia” value [4] was 3 (8), the “Ascites” value [4] was 1 (3) and the “Blood bilirubin increased” value [4] was 6 (16). The “Blood creatinine increased” value [4] was 1 (3), the “Constipation” value [4] was 0 and the “Decreased appetite” value [4] was 1 (3). For the same compound, the “Diarrhea (AE regardless of study drug relationship)” value [4] was 1 (3), the “Fatigue” value [4] was 0 and the “Hyperbilirubinemia” value [4] was 3 (8). For the same compound, the “Hypoalbuminemia” value [4] was 1 (3), the “Insomnia” value [4] was 0 and the “Leukopenia” value [4] was 0. The “Nausea (AE regardless of study drug relationship)” value [4] was 1 (3), the “Number of patients” value [4] was 25 (66) and the “Peripheral edema” value [4] was 0. The “Platelet count decreased” value [4] was 0, the “Pyrexia” value [4] was 0 and the “Vomiting (AE regardless of study drug relationship)” value [4] was 2 (5). The “Weight decreased” value [4] was 0, the “diarrhea, AE regardless of causality” value [5] was 34% and the “nausea, AE regardless of causality” value [5] was 42%. For the same compound, the “vomiting, AE regardless of causality” value [5] was 37%, the “patients with AEs that led to discontinuation of capmatinib” value (all patients (n = 38), nine patients) was 24% and the tolerability (single agent, 600 mg BID capsules and 400 mg BID tablets) was “tolerable with a manageable safety profile”.
